# Columns and labels:
# RBL-2H3 [1] = experiment: Percentage inhibition against release of beta-hexosaminidase from RBL-2H3 cells at 100 uM from control; format: functional; settings: Rattus norvegicus
# RBL-2H3 [2] = experiment: Percentage inhibition against antigen-induced IL-4 production in RBL-2H3 cells at 10 uM concentration; format: functional; settings: Rattus norvegicus
# Mus musculus [3] = experiment: In vivo inhibitory activity against leakage of dye on ear PCA reaction 30 min after 6.25 mg/kg oral administration in mice; format: functional; parameters: scale not given: the % may be the effect or the level left
# Mus musculus [4] = experiment: In vivo inhibitory activity against leakage of dye on ear PCA reaction 30 min after 25 mg/kg oral administration in mice; format: functional; parameters: scale not given: the % may be the effect or the level left
# RBL-2H3 [5] = experiment: Percentage inhibition against antigen-induced IL-4 production in RBL-2H3 cells at 3 uM concentration; format: functional; settings: Rattus norvegicus
# RBL-2H3 [6] = experiment: Percentage inhibition against antigen-induced IL-4 production in RBL-2H3 cells at 30 uM concentration; format: functional; settings: Rattus norvegicus
# RBL-2H3 [7] = experiment: Inhibitory activity against IL-4 production in RBL-2H3 cells was determined; format: functional, cell-based; settings: Rattus norvegicus
# RBL-2H3 [8] = experiment: Inhibitory activity against release of beta-hexosaminidase from RBL-2H3 cells; format: functional, cell-based; settings: Rattus norvegicus
# RBL-2H3 [9] = experiment: Percentage inhibition against antigen-induced IL-4 production in RBL-2H3 cells at 100 uM concentration; format: functional; settings: Rattus norvegicus
# RBL-2H3 [10] = experiment: Percentage inhibition against antigen-induced TNF-alpha production in RBL-2H3 cells at 3 uM concentration; format: functional; settings: Rattus norvegicus
# Mus musculus [11] = experiment: In vivo inhibitory activity against leakage of dye on ear PCA reaction 30 min after 12.5 mg/kg oral administration in mice; format: functional; parameters: scale not given: the % may be the effect or the level left
# Mus musculus [12] = experiment: In vivo inhibitory activity against leakage of dye on ear PCA reaction 30 min after 50 mg/kg oral administration in mice; format: functional; parameters: scale not given: the % may be the effect or the level left
# RBL-2H3 [13] = experiment: Percentage inhibition against antigen-induced TNF-alpha production in RBL-2H3 cells at 0 uM concentration; format: functional, Rattus norvegicus
# RBL-2H3 [14] = experiment: Percentage inhibition against antigen-induced IL-4 production in RBL-2H3 cells at 0 uM concentration; format: functional, Rattus norvegicus
# RBL-2H3 [15] = experiment: Inhibitory activity against TNF-alpha production in RBL-2H3 cells was determined; format: functional, cell-based; settings: Rattus norvegicus
# RBL-2H3 [16] = experiment: Percentage inhibition against antigen-induced TNF-alpha production in RBL-2H3 cells at 10 uM concentration; format: functional; settings: Rattus norvegicus
# RBL-2H3 [17] = experiment: Percentage inhibition against antigen-induced TNF-alpha production in RBL-2H3 cells at 30 uM concentration; format: functional; settings: Rattus norvegicus
# RBL-2H3 [18] = experiment: Percentage inhibition against antigen-induced TNF-alpha production in RBL-2H3 cells at 100 uM concentration; format: functional; settings: Rattus norvegicus
# Mus musculus [19] = experiment: In vivo inhibitory activity against leakage of dye on ear PCA reaction 30 min after 400 mg/kg oral administration in mice; format: functional; parameters: scale not given: the % may be the effect or the level left
# Mus musculus [20] = experiment: In vivo inhibitory activity against leakage of dye on ear PCA reaction 30 min after 100 mg/kg oral administration in mice; format: functional; parameters: scale not given: the % may be the effect or the level left
# Mus musculus [21] = experiment: In vivo inhibitory activity against leakage of dye on ear PCA reaction 30 min after 200 mg/kg oral administration in mice; format: functional; parameters: scale not given: the % may be the effect or the level left
smiles,measurement,setting,value
C=C[C@H](OC(C)=O)c1ccccc1,inhibition at 100 µM,RBL-2H3 [1],9%
C=CCc1ccc(OC(C)=O)cc1,inhibition at 100 µM,RBL-2H3 [1],11%
OC/C=C/c1ccc(O)cc1,inhibition at 100 µM,RBL-2H3 [1],2%
C=C[C@H](OC(C)=O)c1ccc(OC(C)=O)c(OC)c1,inhibition at 10 µM,RBL-2H3 [2],45.9%
same,Control,Mus musculus [3],65.2%
same,Control,Mus musculus [4],54.7%
same,inhibition at 3 µM,RBL-2H3 [5],39.4%
same,inhibition at 30 µM,RBL-2H3 [6],98.1%
same,IC50,RBL-2H3 [7],12 µM
same,IC50,RBL-2H3 [8],19 µM
same,inhibition at 100 µM,RBL-2H3 [9],99.9%
same,inhibition at 3 µM,RBL-2H3 [10],25%
same,Control,Mus musculus [11],58.4%
same,Control,Mus musculus [12],37.8%
same,Inhibition,RBL-2H3 [13],0%
same,Inhibition,RBL-2H3 [14],0%
same,IC50,RBL-2H3 [15],5.8 µM
same,inhibition at 10 µM,RBL-2H3 [16],89%
same,inhibition at 30 µM,RBL-2H3 [17],101%
CC(=O)OC/C=C/c1ccc(O)cc1,inhibition at 100 µM,RBL-2H3 [1],6%
C=CCc1ccc(O[C@H]2O[C@@H](CO)[C@H](O)[C@H](O)[C@@H]2O)cc1,inhibition at 100 µM,RBL-2H3 [1],0%
C=C[C@H](O)c1ccc(OC(C)=O)cc1,inhibition at 100 µM,RBL-2H3 [1],4%
C=C[C@H](O)c1ccccc1,inhibition at 100 µM,RBL-2H3 [1],3%
CC[C@H](OC(C)=O)c1ccc(OC(C)=O)cc1,IC50,RBL-2H3 [8],60 µM
CC(=O)OC/C=C/c1ccc(OC(C)=O)cc1,inhibition at 100 µM,RBL-2H3 [1],21%
same,IC50,RBL-2H3 [8],> 100 µM
O=C(O)/C=C/c1cccc(O)c1,inhibition at 100 µM,RBL-2H3 [1],1%
C=C[C@H](OC(C)=O)c1ccc(OC(C)=O)cc1 [1'-ACETOXYCHAVICOL ACETATE],inhibition at 10 µM,RBL-2H3 [2],45.9%
same,Control,Mus musculus [3],72.4%
same,Control,Mus musculus [4],49.5%
same,inhibition at 3 µM,RBL-2H3 [5],39.4%
same,inhibition at 30 µM,RBL-2H3 [6],98.1%
same,IC50,RBL-2H3 [7],12 µM
same,IC50,RBL-2H3 [8],15 µM
same,inhibition at 100 µM,RBL-2H3 [9],99.9%
same,inhibition at 3 µM,RBL-2H3 [10],5.4%
same,Control,Mus musculus [11],65.5%
same,Control,Mus musculus [12],44.3%
same,Inhibition,RBL-2H3 [13],0%
same,inhibition at 100 µM,RBL-2H3 [18],87.2%
same,Inhibition,RBL-2H3 [14],0%
same,IC50,RBL-2H3 [15],17 µM
same,inhibition at 10 µM,RBL-2H3 [16],32.4%
same,inhibition at 30 µM,RBL-2H3 [17],66.9%
COc1ccc(/C=C/C(=O)O)cc1 [4-METHOXYCINNAMIC ACID],inhibition at 100 µM,RBL-2H3 [1],11%
O=C(O)/C=C/c1ccc(O)c(O)c1 [CAFFEIC ACID],inhibition at 100 µM,RBL-2H3 [1],5%
C=CCc1ccc(O)cc1 [CHAVICOL],inhibition at 100 µM,RBL-2H3 [1],3%
O=C(O)/C=C/c1ccccc1 [CINNAMIC ACID],inhibition at 100 µM,RBL-2H3 [1],7%
O=C(O)/C=C/c1ccc(O)cc1 [COUMARIC ACID],inhibition at 100 µM,RBL-2H3 [1],6%
C=CCc1ccc(O)c(OC)c1 [EUGENOL],inhibition at 100 µM,RBL-2H3 [1],4%
C=CCc1ccc(OC(C)=O)c(OC)c1 [EUGENYL ACETATE],inhibition at 100 µM,RBL-2H3 [1],9%
C=CCc1ccc(O)c(O)c1 [HYDROXYCHAVICOL],inhibition at 100 µM,RBL-2H3 [1],17%
same,IC50,RBL-2H3 [8],> 100 µM
O=c1cc(-c2ccc(O)c(O)c2)oc2cc(O)cc(O)c12 [LUTEOLIN],inhibition at 10 µM,RBL-2H3 [2],89.4%
same,inhibition at 3 µM,RBL-2H3 [5],41.6%
same,inhibition at 30 µM,RBL-2H3 [6],99.2%
same,IC50,RBL-2H3 [7],3.7 µM
same,inhibition at 3 µM,RBL-2H3 [10],25%
same,Inhibition,RBL-2H3 [13],0%
same,Inhibition,RBL-2H3 [14],0%
same,IC50,RBL-2H3 [15],5.8 µM
same,inhibition at 10 µM,RBL-2H3 [16],89%
same,inhibition at 30 µM,RBL-2H3 [17],101%
C=CCc1ccc(OC)c(OC)c1 [METHYLEUGENOL],inhibition at 100 µM,RBL-2H3 [1],1%
"COc1ccc(/C=C/C(=O)O)cc1OC [O,O'-DIMETHYLCAFFEIC ACID]",inhibition at 100 µM,RBL-2H3 [1],9%
O=C(O)/C=C/c1ccccc1O [O-COUMARIC ACID],inhibition at 100 µM,RBL-2H3 [1],11%
COc1cc(/C=C/C(=O)O)cc(OC)c1O [SINAPINATE],inhibition at 100 µM,RBL-2H3 [1],10%
COc1ccc(/C=C/C(=O)Nc2ccccc2C(=O)O)cc1OC [TRANILAST],Control,Mus musculus [19],42.7%
same,Control,Mus musculus [20],66%
same,Control,Mus musculus [21],49.8%
O=C/C=C/c1ccc(O)cc1 [p-HYDROXYCINNAMALDEHYDE],inhibition at 100 µM,RBL-2H3 [1],22%
same,IC50,RBL-2H3 [8],> 100 µM
